Patent US20090304825A1, “ESTROGENIC EXTRACTS FOR USE IN TREATING VAGINAL AND VULVAR ATROPHY” (Bionovo, Inc., priority 2008, published 2009)

What was measured:
[1] = target: estrogen receptor beta (ERβ) (Homo sapiens, UniProt Q92731); assay: Estrogen receptor subtype transcriptional activation (studies, method not described); assay type: cell-based; conditions: "Studies have shown"
[2] = tested on: both estrogen receptor subtypes; assay: Binding to estrogen receptor subtypes (method not described); conditions: "Studies have shown"
[3] = tested on: either receptor (ERα, ERβ); assay: Antagonistic effect on estrogen receptors (method not described); assay type: cell-based
ERβ [4] = target: T1, ERβ (Homo sapiens, UniProt Q92731); assay: ERE-tk-Luc activation in U2OS osteosarcoma cells co-transfected with ERβ; assay type: cell-based; set-up: expressed in transfected cells; host or cells: U2OS osteosarcoma cells
T1 sequence (Q92731 whole entry): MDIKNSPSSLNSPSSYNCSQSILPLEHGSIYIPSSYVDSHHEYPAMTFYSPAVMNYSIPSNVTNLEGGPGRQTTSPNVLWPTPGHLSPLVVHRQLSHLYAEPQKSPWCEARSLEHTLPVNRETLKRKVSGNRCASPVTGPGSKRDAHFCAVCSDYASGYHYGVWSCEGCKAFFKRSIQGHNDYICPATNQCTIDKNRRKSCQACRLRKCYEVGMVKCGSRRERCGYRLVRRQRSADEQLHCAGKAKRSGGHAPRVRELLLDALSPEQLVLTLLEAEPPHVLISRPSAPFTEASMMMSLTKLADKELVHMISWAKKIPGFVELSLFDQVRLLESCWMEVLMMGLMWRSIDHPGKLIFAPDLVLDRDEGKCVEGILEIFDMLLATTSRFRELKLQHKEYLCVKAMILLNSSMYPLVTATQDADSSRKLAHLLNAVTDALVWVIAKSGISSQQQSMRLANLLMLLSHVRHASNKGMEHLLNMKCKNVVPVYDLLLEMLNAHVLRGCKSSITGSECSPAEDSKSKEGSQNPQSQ
Text: FIGS. 1A-1C. […] (Amarathaceae).

TNF-RE tkLuc = assay: Antiestrogen effect on TNF-RE tkLuc; assay type: cell-based; conditions: for effect on the repression induced by E2: TNF-RE tkLuc; for activation of TNF-RE tkLuc: antiestrogens, in contrast to E2
Text: […]. […] […].

[5] = several small randomized trials; cited from earlier work
oopherectomized mice = assay: Intra-vaginal administration to oopherectomized mice, vaginal and endometrial histology; assay type: in vivo
Text: The glands form back to back without intervening stroma. […] In one area, the glands arise in what appears to be a polyp with a broad stalk and thick fibrovascular core.

ERβ [6] = target: T1, ERβ; conditions: in the presence of ERβ

Sequence of estrogen receptor beta (ERβ) (Q92731 whole entry): as above

ER subtype transcriptional activation [1] | Compound | antagonistic effect on either receptor [3] | effect on the repression induced by E2 (TNF-RE tkLuc) | activation of TNF-RE tkLuc (TNF-RE tkLuc) | other results
ERβ transcriptional activation only | C=CC(/C=C\c1ccc(O)cc1)c1ccc(O)cc1 (centres unmarked) [Nyasol] | does not have an antagonistic effect on either receptor | – | – | binding affinity to estrogen receptor subtypes [2]: binds with equal affinity to both estrogen receptor subtypes; activation of ERE-tk-Luc relative to estradiol (E2) (ERβ [4]; compared with 10 nM E2): activation equivalent to 10 nM estradiol; activation in the presence of ER antagonists (ERβ [4]; raloxifene (Ral), tamoxifen (Tam), b208 also ICI 182, 780): blocked the activation
– | C[C@]12CC[C@@H]3c4ccc(O)cc4C[C@@H](CCCCCCCCC[S+]([O-])CCCC(F)(F)C(F)(F)F)[C@H]3[C@@H]1CC[C@@H]2O (some centres unmarked) [ICI 182, 780] | – | abolished the repression induced by E2 | 2 fold | –
– | Oc1ccc2c(c1)CC[C@H](c1ccccc1)[C@@H]2c1ccc(OCCN2CCCC2)cc1 [lasofoxifene] | – | – | – | vaginal maturation indices and vaginal pH relative to placebo [5]: improvements in vaginal maturation indices and vaginal pH
– | CC/C(=C(\c1ccccc1)c1ccc(OCCN(C)C)cc1)c1ccccc1 [tamoxifen] | – | abolished the repression induced by E2 | 2 fold | –
– | O=C(c1ccc(OCCN2CCCCC2)cc1)c1c(-c2ccc(O)cc2)sc2cc(O)ccc12 [raloxifene] | – | abolished the repression induced by E2 | 2 fold | antagonist effect on the activation by herbal extracts and active ingredients in VG101 (ERβ [4]; ERE-tk-Luc): blocked the activation
ERβ selective transcriptional activation | COc1ccc(-c2coc3cc(O)ccc3c2=O)cc1O [Calycosin] | does not have an antagonistic effect on either receptor | – | – | –
– | estrogen | – | – | – | endometrium histology (oopherectomized mice; mouse model, compared to controls): endomyometrium (the equivalent of complex atypical hyperplasia in women, worrisome for in situ carcinoma); vaginal epithelium histology (oopherectomized mice; oopherectomized mice, intra-vaginal, VG101 0.5 mg/day for 10 days): squamous epithelium with hyperkeratosis
– | C[C@]12CC[C@@H]3c4ccc(O)cc4CC[C@H]3[C@@H]1CC[C@@H]2O [E2, estradiol] | – | – | – | repression of TNF-α activation of TNF-RE tkLuc (ERβ [6]): 60-80%

Compound | ER subtype transcriptional activation [1] | antagonistic effect on either receptor [3] | effect on the repression induced by E2 (TNF-RE tkLuc) | activation of TNF-RE tkLuc (TNF-RE tkLuc) | other results
COc1c(O)cc2c(=O)c3c(oc2c1O)oc1c(O)cccc13 [TCIF, tetracyclic isoflavone] | estrogen receptor beta (ERβ) selective transcriptional activation | does not have an antagonistic effect on either receptor | – | – | –
